# Source: PubChem BioAssay AID1253 (Columbia University Molecular Screening Center, 2008)
# Calls of active or inactive are those of the source.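 The calls were made as follows: active = IC50 under 10 µM in the follow-up dose response; inactive = IC50 10 µM or more, or under 40% single-dose inhibition.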
# Target: Tyrosine-protein phosphatase non-receptor type 22 (Homo sapiens) (UniProt Q9Y2R2)
# Experiment: PTPN22 enzyme inhibition – biochemical, DiFMUP fluorescence, retest and dose response, confirmation (AID 1253)
# Settings: recombinant LYP
# Tyrosine-protein phosphatase non-receptor type 22 (Homo sapiens), sequence (Q9Y2R2 whole entry, looked up): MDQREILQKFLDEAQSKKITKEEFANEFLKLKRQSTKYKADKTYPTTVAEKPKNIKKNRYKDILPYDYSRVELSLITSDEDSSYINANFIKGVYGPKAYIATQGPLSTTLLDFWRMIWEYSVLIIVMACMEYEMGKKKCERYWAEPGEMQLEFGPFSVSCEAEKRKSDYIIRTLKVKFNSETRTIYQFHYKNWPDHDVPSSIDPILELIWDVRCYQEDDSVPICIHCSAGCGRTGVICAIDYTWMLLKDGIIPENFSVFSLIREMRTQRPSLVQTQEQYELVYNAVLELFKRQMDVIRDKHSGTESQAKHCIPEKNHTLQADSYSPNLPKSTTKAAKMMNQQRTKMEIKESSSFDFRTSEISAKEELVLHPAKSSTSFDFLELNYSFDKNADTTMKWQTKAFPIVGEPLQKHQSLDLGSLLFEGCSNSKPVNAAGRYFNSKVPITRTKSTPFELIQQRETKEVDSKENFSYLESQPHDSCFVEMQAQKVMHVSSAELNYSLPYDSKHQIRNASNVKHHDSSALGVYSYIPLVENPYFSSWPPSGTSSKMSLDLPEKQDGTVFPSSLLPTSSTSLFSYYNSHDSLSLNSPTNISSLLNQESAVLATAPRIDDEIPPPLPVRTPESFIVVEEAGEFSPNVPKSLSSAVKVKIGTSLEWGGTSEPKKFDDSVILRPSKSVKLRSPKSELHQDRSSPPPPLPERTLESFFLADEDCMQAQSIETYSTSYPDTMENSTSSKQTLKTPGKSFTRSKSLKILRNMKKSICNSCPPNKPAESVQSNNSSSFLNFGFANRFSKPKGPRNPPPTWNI
row,IC50,SMILES
1,4.06 µM,O=[N+]([O-])c1cc(/C=N\Nc2nccs2)ccc1O

# Same assay, conditions: recombinant LYP, at 10 µM, active compounds read high
row,inhibition,SMILES
1,inactive,CCCCN(C(=O)CSc1nnc(Nc2ccc(C)c(C)c2)s1)c1c(N)n(Cc2ccccc2)c(=O)[nH]c1=O
2,inactive,Cc1nc(S/C(=C/c2ccc(-c3cccc(Cl)c3)o2)C(=O)O)n[nH]1
3,inactive,Cc1nc2c(c(=O)n1CCC1=CCCCC1)c1nc3ccccc3nc1n2/N=C/c1ccccc1
4,inactive,O=[N+]([O-])c1ccc(N2CCN(S(=O)(=O)c3ccc(Cl)cc3)CC2)cc1NCc1cccnc1
5,inactive,Cc1ccc(C(=O)n2nc(-c3ccco3)nc2N)cc1
6,inactive,Cc1ccc2nc(NC(=S)NC(=O)c3cccs3)sc2c1
7,inactive,Cc1cccc(N(C(=O)c2ccc(Cl)cc2)C2CS(=O)(=O)CC2OC(=O)c2ccc(Cl)cc2)c1 (stereo unspecified)
8,inactive,Cc1cc(C)n2nc(SCc3cc(=O)oc4cc(O)ccc34)nc2n1
9,inactive,CC(=O)Nc1ccc(NC(=O)c2ccccc2CC[N+](=O)[O-])cc1
10,inactive,COc1ccc(C(=O)c2sc3nc(-c4ccccc4)ccc3c2N)cc1OC
11,inactive,COc1ccc(-n2nnnc2SCC(=O)c2ccc(O)c(O)c2)cc1
12,inactive,C=CCNC(=S)NNC(=O)c1cccn(Cc2ccc(Cl)c(Cl)c2)c1=O
13,inactive,COc1ccc(CN2CCN(C(=O)c3ccco3)CC2)cc1
14,inactive,COc1ccc(NC(=O)CSc2ccc3c4c(cccc24)C(=O)c2ccccc2-3)cc1
15,inactive,S=c1[nH]nc(COc2ccccc2)n1/N=C/C(Cl)=C/c1ccccc1
